# Results: patent US10087226B2, “Chimeric peptide that interacts with cell membrane gangliosides” (Universite D'Aix-Marseille, priority 2014, dated 2018)
# Ends that are not written are not given here.
# How the values were obtained:
# SH-SY5Y cells = assay: Calcium measurements, amyloid pore formation induced by Aβ1-42; assay type: cell-based, human
# Protocol: A. In a first experiment, SH-SY5Y cells were treated with Aβ1-42peptide (220 nM), and Ca^2+ dependent fluorescence was analyzed (top curve). In a second series of experiments, Aβ1-42 and the chimeric α-syn34-45/HH peptide (both 220 nM) were mixed extemporaneously directly injected onto the cells (C1 and C2 curves corresponding to two separate experiments). The C3 curve corresponds to the calcium response induced by the chimeric peptide alone. Results are expressed as mean±SD (n=100). In panel B, the same colors were used but the chimeric peptide was replaced by the wild-type α-syn34-45 peptide.
# A. SH-SY5Y cells were treated with Aβ1-42 peptide (220 nM), and Ca^2+ dependent fluorescence was analyze. […] In absence of the chimeric peptide (− Pep Chim), amyloid pore formation induced by the Aβ1-42 peptide was evidenced by an increase of Ca^2+ fluorescence inside the cells. […] Warmer colors correspond to higher fluorescence (left scale).
# Cells were plated in 35 mm culture dishes, grown during 72 h and loaded with 5 μM Fluo-4 AM (Invitrogen-Life Technologies, Saint Aubin, France) for 30 min in the dark, washed three times with HBSS (Gibco-Life Technologies, Saint-Aubin, France), and incubated for 20 min at 37° C. […] Fluorescence emission at 525 nm was imaged by a digital camera CDD (ORCA-ER Hamanatsu, Japan) after fluorescence excitation at 490 nm. […]
# [1] = tested on: bEnd-3 cells co-cultured with astrocytic CTX-TNA2 cells
# Protocol: (§1) These cells are plated at various densities ranging from 10.000 to 50.000 cells per well in two-compartment cell chambers (Greiner Bio-one). The lower compartment of the chamber is a well that is part of 12-well culture plate. The upper chamber is equipped with a permeable filter (mean pore diameter of 0.4 μm) onto which the cells are seeded. The cells are cultured in DMEM/F12 10% fetal calf serum.
# (§2) At confluency, the cells formed a uniform monolayer with a transendothelial resistance of 150-200 Ω·cm^2 (measured with the EVOM apparatus, WPI). The transendothelial resistance reflects the presence of tight junctions overall the culture. These tight junctions efficiently prevent the paracellular passage of molecules. It is considered that the endothelium is tight when this value is >100 Ω·cm^2. Therefore, all experiments are performed with functional endothelial barriers. […]
# (§3) The passage of the peptide through the endothelial barrier is thus followed in real-time. The concentration of the chimeric peptide is determined by spectrophotometry. […]
# [2] = tested on: bEnd-3 cells co-cultured with glial C6 cells
# Protocol: as §1, §2, §3
# [3] = Lipid monolayer assay (Langmuir film balance), GM1 monolayer; assay type: binding; conditions: for interaction with GM1 monolayer (surface pressure increase): peptide 10 μM in subphase
# Protocol: Peptide-cholesterol interactions were studied with the Langmuir film balance technique using a Kibron microtensiometer as previously described (Fantini and Yahi, 2011a).
# In this experiment, a monolayer of ganglioside GM1 was prepared at the air-water interface and the peptide was injected in the aqueous subphase. The interaction of the peptide with the ganglioside was evidenced by an increase in the surface pressure of the monolayer, which was followed in real-time with a platinum probe (see Thakur et al, 2009 for a full description of the technique and its application to amyloid proteins). […] Then single mutants were assayed to identify which of the two His is actually critical for GM1 recognition. […] In this model, His-13 interacted with one GM1, and His-14 with the second one. Clearly, the cooperation between both GM1 molecules allowed an optimal interaction with the Aβ5-16 peptide driven by histidine residues. Conversely, because it is devoid of these histidine residues, the glycolipid-binding domain of α-synuclein (α-syn34-45) has a marked preference for ganglioside GM3 instead of GM1.
# [4] = Lipid monolayer assay, GM3 monolayer; assay type: binding
# [5] = Lipid monolayer assay, GT1b monolayer; assay type: binding; conditions: peptide 10 μM in aqueous subphase
# [6] = Lipid monolayer assay, GD1a monolayer; assay type: binding; conditions: peptide 10 μM in aqueous subphase
# [7] = Lipid monolayer assay, GM4 monolayer; assay type: binding; conditions: peptide 10 μM in aqueous subphase
# [8] = Lipid monolayer assay, GD3 monolayer; assay type: binding; conditions: peptide 10 μM in aqueous subphase
# [9] = initial surface pressure 17.5 mN·m^−1
# [10] = ganglioside monolayer, peptide 10 μM in aqueous subphase
sequence,measurement,setting,value
"KEGVLYVGHHTK [α-syn34-45/HH, KEGVLYVGHHTK]",effect of peptide alone on Ca^2+ fluxes (intrinsic neurotoxicity),"SH-SY5Y cells; peptide alone, SH-SY5Y cells",little effect on Ca^2+ fluxes
same,transendothelial resistance after 24 hours of incubation with peptide,[1],153 Ω·cm^2
same,transendothelial resistance after 24 hours of incubation with peptide,[2],152 Ω·cm^2
KEHHGVLYVGTK [reversed chimeric peptide],interaction with GM1 monolayer (surface pressure increase),[3]; [9],recognizes both GM1 and GM3 gangliosides
same,"interaction with GM3 monolayer (surface pressure increase, kinetics)","[4]; peptide in subphase, initial surface pressure 17.5 mN·m^−1",recognizes both GM1 and GM3 gangliosides
KEGVLYVGSKTK (listed as Homo sapiens) [α-syn34-45],"Ganglioside specificity: critical pressure of insertion, GM1",[3]; [10],+ ((+) means a critical pressure of insertion <25 mN · m^−1)
same,"critical pressure of insertion (πc), GM1 monolayers","[3]; monolayers at various initial surface pressures, x-axis intercept (FIG. 2D, 4C)",25 mN·m^−1
same,"Ganglioside specificity: critical pressure of insertion, GT1b",[5],+ ((+) means a critical pressure of insertion <25 mN · m^−1)
same,"Ganglioside specificity: critical pressure of insertion, GD1a",[6],+ ((+) means a critical pressure of insertion <25 mN · m^−1)
same,"Ganglioside specificity: critical pressure of insertion, GM4",[7],+ ((+) means a critical pressure of insertion <25 mN · m^−1)
same,"Ganglioside specificity: critical pressure of insertion, GM3",[4]; [10],+++ ((+++) a critical pressure of insertion >25 mN · m^−1)
same,"critical pressure of insertion (πc), GM3 monolayers","[4]; monolayers at various initial surface pressures, x-axis intercept (FIG. 2B)",37.5 mN·m^−1
same,effect on elevation of intracellular Ca^2+ levels induced by Aβ1-42,"SH-SY5Y cells; Aβ1-42 220 nM, peptide 220 nM (equimolar), Fluo-4 AM fluorescence",only very little inhibitory activity
same,"Ganglioside specificity: critical pressure of insertion, GD3",[8],+ ((+) means a critical pressure of insertion <25 mN · m^−1)
RHDSGYEVHHQK (listed as Homo sapiens) [Aβ5-16],interaction with GM1 monolayer (surface pressure increase),[3]; [9],surface pressure started to increase immediately after the injection
same,"time to maximum surface pressure, GM1 monolayer","[3]; peptide 10 μM, initial surface pressure 17.5 mN·m^−1",30 min
